{"source": "patent US20050288338A1", "about": "“Amido compounds and their use as pharmaceuticals” (priority 2004, published 2005)", "origin": "cited, not measured here", "target": "T1, 11βHSD1 in the eye (Homo sapiens, UniProt P28845)", "T1 construct": "host or cells: eye of healthy human volunteers (in vivo)", "T1 sequence (P28845 whole entry)": "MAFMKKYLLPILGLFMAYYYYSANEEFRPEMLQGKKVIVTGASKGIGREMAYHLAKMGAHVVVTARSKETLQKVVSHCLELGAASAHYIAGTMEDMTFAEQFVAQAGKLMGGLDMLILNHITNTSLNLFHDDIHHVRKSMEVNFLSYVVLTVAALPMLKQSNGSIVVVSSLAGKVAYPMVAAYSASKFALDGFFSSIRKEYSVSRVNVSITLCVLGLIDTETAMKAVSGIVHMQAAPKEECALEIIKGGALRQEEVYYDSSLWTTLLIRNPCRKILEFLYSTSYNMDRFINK", "conditions": "healthy volunteers, after seven days of carbenoxolone treatment", "data": [{"smiles": "CC1(C)[C@@H](OC(=O)CCC(=O)O)CC[C@]2(C)[C@H]3C(=O)C=C4[C@@H]5C[C@@](C)(C(=O)O)CC[C@]5(C)CC[C@@]4(C)[C@]3(C)CC[C@@H]12", "note": "[carbenoxolone]", "values": [{"measurement": "IOP was reduced by", "result": 18, "unit": "%"}]}]}
